Where “and” joins values, the source holds several entries; their conditions need not be identical. Identical values can stand only once. Inconclusive results and toxic doses are left out.
Test system: CD2F1 mice, L1210 leukemia ip, survival T/C
Assay: NCI In Vivo Anticancer Drug Screen. Data for tumor model L1210 Leukemia (intraperitoneal) in CD2F1 (CDF1) mice
Conditions: higher = longer survival
Method in brief: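 Ratio T/C, where T is the treated-group value and C the vehicle-dosed control value, from mice implanted with a transplantable tumor.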

[1] = endpoint: mean survival time, dose: 100.0 mg/kg/injection, schedule: Q04DX003 (ip), vehicle: saline with Tween-80
[2] = endpoint: mean survival time, dose: 400.0 mg/kg/injection, schedule: Q04DX003 (ip), vehicle: saline with Tween-80
[3] = endpoint: mean survival time, dose: 25.0 mg/kg/injection, schedule: Q04DX002 (ip), vehicle: saline with Tween-80
[4] = endpoint: mean survival time, dose: 50.0 mg/kg/injection, schedule: Q04DX002 (ip), vehicle: saline with Tween-80
[5] = endpoint: mean survival time, dose: 50.0 mg/kg/injection, schedule: Q01DX009 (ip), vehicle: saline with Tween-80
[6] = endpoint: mean survival time, dose: 100.0 mg/kg/injection, schedule: Q01DX001 (ip), vehicle: saline
[7] = endpoint: mean survival time, dose: 100.0 mg/kg/injection, schedule: Q01DX009 (ip), vehicle: saline with Tween-80
[8] = endpoint: mean survival time, dose: 200.0 mg/kg/injection, schedule: Q01DX001 (ip), vehicle: saline
[9] = endpoint: mean survival time, dose: 200.0 mg/kg/injection, schedule: Q01DX009 (ip), vehicle: saline with Tween-80
[10] = endpoint: mean survival time, dose: 200.0 mg/kg/injection, schedule: Q04DX003 (ip), vehicle: saline with Tween-80
[11] = endpoint: mean survival time, dose: 400.0 mg/kg/injection, schedule: Q01DX009 (ip), vehicle: saline with Tween-80
[12] = endpoint: mean survival time, dose: 100.0 mg/kg/injection, schedule: Q01DX001 (ip), vehicle: saline with Tween-80
[13] = endpoint: mean survival time, dose: 200.0 mg/kg/injection, schedule: Q01DX001 (ip), vehicle: saline with Tween-80
[14] = endpoint: mean survival time, dose: 400.0 mg/kg/injection, schedule: Q01DX001 (ip), vehicle: saline with Tween-80
[15] = endpoint: mean survival time, dose: 200.0 mg/kg/injection, schedule: Q04DX003 (ip), vehicle: saline
[16] = endpoint: mean survival time, dose: 400.0 mg/kg/injection, schedule: Q04DX003 (ip), vehicle: saline

## COc1ccc2c(c1)n([O-])c1ccccc1[n+]2=O
endpoint: median survival time, dose: 12.5 mg/kg/injection, schedule: Q01DX005 (ip), vehicle: saline with Tween-80
  T/C: 116 % of control
endpoint: median survival time, dose: 12.56 mg/kg/injection, schedule: Q01DX005 (ip), vehicle: saline with Tween-80
  T/C: 115 % of control
endpoint: median survival time, dose: 21.6 mg/kg/injection, schedule: Q01DX005 (ip), vehicle: saline with Tween-80
  T/C: 115 % of control
endpoint: median survival time, dose: 25.0 mg/kg/injection, schedule: Q01DX005 (ip), vehicle: saline with Tween-80
  T/C: 116 % of control
endpoint: median survival time, dose: 36.0 mg/kg/injection, schedule: Q01DX005 (ip), vehicle: saline with Tween-80
  T/C: 222 % of control and 112 % of control
endpoint: median survival time, dose: 50.0 mg/kg/injection, schedule: Q01DX005 (ip), vehicle: saline with Tween-80
  T/C: 117 % of control
endpoint: median survival time, dose: 60.0 mg/kg/injection, schedule: Q01DX005 (ip), vehicle: saline with Tween-80
  T/C: 120 % of control and 287 % of control
endpoint: median survival time, dose: 100.0 mg/kg/injection, schedule: Q01DX005 (ip), vehicle: saline with Tween-80
  T/C: 300 % of control
endpoint: median survival time, dose: 166.67 mg/kg/injection, schedule: Q01DX005 (ip), vehicle: saline with Tween-80
  T/C: 123 % of control

## CSc1ccc(N=C/C=C/c2ccccc2)cc1
[1]
  T/C: 93 % of control
[2]
  T/C: 91 % of control

## Cc1cc(F)ccc1NC(=O)Nc1ccc(F)cc1C
[3]
  T/C: 87 % of control
[4]
  T/C: 87 % of control

## C=C(C)/C([O-])=N/[N+](C)(C)CC(O)CCCCCCCCCCCC (stereo not drawn)
endpoint: mean survival time, dose: 25.0 mg/kg/injection, schedule: Q01DX001 (ip), vehicle: saline
  T/C: 96 % of control and 97 % of control
endpoint: mean survival time, dose: 50.0 mg/kg/injection, schedule: Q01DX001 (ip), vehicle: saline
  T/C: 97 % of control and 100 % of control
[5]
  T/C: 94 % of control
[6]
  T/C: 96 % of control and 97 % of control
[7]
  T/C: 94 % of control
[8]
  T/C: 93 % of control and 100 % of control
[9]
  T/C: 97 % of control

## O=C(N/N=C/c1ccccc1O)c1ccncc1
[7]
  T/C: 98 % of control
[1]
  T/C: 98 % of control
[9]
  T/C: 95 % of control
[10]
  T/C: 96 % of control
[11]
  T/C: 98 % of control
[2]
  T/C: 98 % of control

## C#CC(=O)OCC#CCOC(=O)C#C
endpoint: mean survival time, dose: 0.75 mg/kg/injection, schedule: Q01DX009 (ip), vehicle: saline with Tween-80
  T/C: 98 % of control
endpoint: mean survival time, dose: 1.5 mg/kg/injection, schedule: Q01DX009 (ip), vehicle: saline with Tween-80
  T/C: 100 % of control
endpoint: mean survival time, dose: 3.0 mg/kg/injection, schedule: Q01DX009 (ip), vehicle: saline with Tween-80
  T/C: 98 % of control
endpoint: mean survival time, dose: 6.0 mg/kg/injection, schedule: Q01DX009 (ip), vehicle: saline with Tween-80
  T/C: 98 % of control
endpoint: mean survival time, dose: 12.0 mg/kg/injection, schedule: Q01DX009 (ip), vehicle: saline with Tween-80
  T/C: 90 % of control

## CCC(COC(=O)c1ccc([N+](=O)[O-])cc1)NC1CCCCC1 (stereo not drawn)
endpoint: mean survival time, dose: 75.0 mg/kg/injection, schedule: Q01DX001 (ip), vehicle: saline
  T/C: 102 % of control
endpoint: mean survival time, dose: 150.0 mg/kg/injection, schedule: Q01DX001 (ip), vehicle: saline
  T/C: 103 % of control
endpoint: mean survival time, dose: 300.0 mg/kg/injection, schedule: Q01DX001 (ip), vehicle: saline
  T/C: 101 % of control

## NC(=O)N/N=C/c1cccs1
[5]
  T/C: 89 % of control
[9]
  T/C: 97 % of control
[10]
  T/C: 87 % of control
[2]
  T/C: 91 % of control

## NC(CCC(=O)Nc1cccc2ccccc12)C(=O)O (stereo not drawn)
[5]
  T/C: 98 % of control
[7]
  T/C: 107 % of control
[9]
  T/C: 104 % of control

## NOCc1nnc(Nc2ccccc2)s1
[6]
  T/C: 100 % of control
[8]
  T/C: 97 % of control
endpoint: mean survival time, dose: 400.0 mg/kg/injection, schedule: Q01DX001 (ip), vehicle: saline
  T/C: 96 % of control

## O=c1oc2ccc(Cl)cc2c(Nc2ccccc2)c1Cl
[12]
  T/C: 93 % of control
[13]
  T/C: 93 % of control
[14]
  T/C: 90 % of control

## CC(=O)N(Cc1ccncc1)N=O
endpoint: mean survival time, dose: 75.0 mg/kg/injection, schedule: Q01DX001 (ip), vehicle: water
  T/C: 110 % of control
endpoint: mean survival time, dose: 150.0 mg/kg/injection, schedule: Q01DX001 (ip), vehicle: water
  T/C: 114 % of control
endpoint: mean survival time, dose: 300.0 mg/kg/injection, schedule: Q01DX001 (ip), vehicle: water
  T/C: 116 % of control

## COc1ccc(C2NN(C)C3(O)C(=O)N(C4CCCCC4)CC23)cc1 (stereo not drawn)
[12]
  T/C: 107 % of control
[13]
  T/C: 94 % of control
[14]
  T/C: 96 % of control

## OCC1OC(Nc2ncnc3snnc23)C(O)C1O (stereo not drawn)
[15]
  T/C: 157 % of control
[16]
  T/C: 173 % of control

## O=C1C=C(CCc2ccccc2)CCC1
[7]
  T/C: 107 % of control
[9]
  T/C: 107 % of control
[11]
  T/C: 108 % of control

## N#Cc1nc(-c2ccco2)c(-c2ccco2)nc1C#N
[3]
  T/C: 102 % of control
[4]
  T/C: 90 % of control
[12]
  T/C: 96 % of control
endpoint: mean survival time, dose: 100.0 mg/kg/injection, schedule: Q04DX002 (ip), vehicle: saline with Tween-80
  T/C: 90 % of control

## CCCCCCCCCCCCCCCC(=O)N(CCCCN(CCCN(C)C)C(=O)CCCCCCCCCCCCCCC)CCCN(C)C
endpoint: mean survival time, dose: 25.0 mg/kg/injection, schedule: Q01DX009 (ip), vehicle: saline with Tween-80
  T/C: 93 % of control
[5]
  T/C: 91 % of control

## COC(=O)C(C)NC(=O)OCc1ccccc1 (stereo not drawn)
[1]
  T/C: 96 % of control
[10]
  T/C: 98 % of control
[2]
  T/C: 101 % of control

## O=[N+]([O-])C/C=C(/C=Nc1ccc(Cl)cc1)[N+](=O)[O-]
endpoint: mean survival time, dose: 100.0 mg/kg/injection, schedule: Q01DX009 (ip), vehicle: saline
  T/C: 101 % of control
endpoint: mean survival time, dose: 100.0 mg/kg/injection, schedule: Q04DX003 (ip), vehicle: saline
  T/C: 105 % of control
endpoint: mean survival time, dose: 200.0 mg/kg/injection, schedule: Q01DX009 (ip), vehicle: saline
  T/C: 102 % of control
[15]
  T/C: 97 % of control
endpoint: mean survival time, dose: 400.0 mg/kg/injection, schedule: Q01DX009 (ip), vehicle: saline
  T/C: 96 % of control
[16]
  T/C: 97 % of control

Reference: PubChem BioAssay AID256 (DTP/NCI, 2004)
